IC50 and inhibition data for eight molecules are collected here from PMC12133982, “Predominant T-cell epitopes of SARS-CoV-2 restricted by multiple prevalent HLA-B and HLA-C allotypes in Northeast Asia” (Frontiers in Immunology, 2025).

One may read the inhibition as the change of the read-out against control, counted positive when it falls.

Test [1] addresses HLA-B4403 (Homo sapiens, UniProt P01889, A223V/A65T/A93T/A95T/D201E/D98Y/E176V/E187L/E204Q/E69K/G107R/H137Y/K202T/L105A/L119I/N104T/N87E/Q56L/Q94N/R106L/R155S/R180L/S101N/S121R/S35A/S48T/T118I/V36M/W191S/Y140D/Y91S). In words: Competitive peptide binding assay, CIR-B4403. The conditions noted are these: HMy2.CIR-B4403 cells, reference Cy5-CYMEAVAL, class from inhibition at 5 and 15 μM, flow cytometry MFI; read-out: Binding affinity with HLA-B4403. Here is the method:
(§1) Then, competitive peptide binding assays were performed.
For orientation: Flow cytometry measures light scatter and fluorescence of single cells or particles in a stream.

Test [2] has as its target HLA-B1501 (Homo sapiens, UniProt P01889, A329T/A93T/A95T/C349S/D201E/D98Y/E187L/E204Q/E69M/E70A/K202T/N87E/Q94N/R155S/R180W/S121R/S35A/S48A/V306I/V36M/Y140S/Y91S). In words: Competitive peptide binding assay, CIR-B1501. The conditions noted are these: HMy2.CIR-B1501 cells, reference Cy5-[…], class from inhibition at 5 and 15 μM, flow cytometry MFI; read-out: Binding affinity with HLA-B1501. Here is the method: as §1

The target in test [3] is HLA-B1502 (Homo sapiens, UniProt P01889, A329T/A93T/A95T/C349S/D201E/D98Y/E187L/E204Q/E69M/E70A/H137Y/K202T/L119I/Q94N/R155S/R180L/S121R/S35A/S48A/T118I/V306I/V36M/Y140S/Y91S). The test is described as follows: Competitive peptide binding assay, CIR-B1502. Particulars: HMy2.CIR-B1502 cells, reference Cy5-[…], class from inhibition at 5 and 15 μM, flow cytometry MFI; read-out: Binding affinity with HLA-B1502. Here is the method:
as §1

Test [4] concerns the target HLA-B4001 (Homo sapiens, UniProt P01889, A65T/A93T/A95T/D138N/D98Y/E176V/E69K/N87E/Q56L/Q94N/R180L/S121R/S35A/S48T/T167S/V36M/W171L/Y33H/Y91S). The test is described as follows: Competitive peptide binding assay, CIR-B4001. Particulars: HMy2.CIR-B4001 cells, reference Cy5-[…], class from inhibition at 5 and 15 μM, flow cytometry MFI; read-out: Binding affinity with HLA-B4001. Here is the method:
as §1

In test [5] the target is HLA-B1302 (Homo sapiens, UniProt P01889, A65T/A93T/A95T/D138N/D201E/D98Y/E176V/E204Q/E69M/E70A/G107R/K202T/L105A/L119W/N104T/N87E/Q94N/R106L/R155S/R169L/R180L/S101N/S121T/S35A/S48T/V127L/V36M/Y140L/Y91S). In words: Competitive peptide binding assay, CIR-B1302. The conditions noted are these: HMy2.CIR-B1302 cells, reference Cy5-MMWYWGPSL, class from inhibition at 5 and 15 μM, flow cytometry MFI; read-out: Binding affinity with HLA-B1302. Here is the method: as §1

In test [6] the target is T1, HLA-B0702 (Homo sapiens, UniProt P01889).
T1 construct: expressed in transfected cells; host or cells: HMy2.CIR
The test is described as follows: Competitive peptide binding assay, CIR-B0702. The conditions noted are these: HMy2.CIR-B0702 cells, reference Cy5-[…], class from inhibition at 5 and 15 μM, flow cytometry MFI. Here is the method: as §1

Test [7] concerns the target HLA-B3501 (Homo sapiens, UniProt P01889, A329T/A93T/A95T/C349S/D201E/D98Y/E176V/E187L/E204Q/E69T/I218V/K202T/L119I/Q94N/R155S/R180L/S121R/S35A/S48A/T118I/V127L/V306I/V36M/Y140S/Y91F). The test is described as follows: Competitive peptide binding assay, CIR-B3501. Particulars: HMy2.CIR-B3501 cells, reference Cy5-[…], class from inhibition at 5 and 15 μM, flow cytometry MFI; read-out: Binding affinity with HLA-B3501. Here is the method:
as §1

In test [8] the target is HLA-B4601 (Homo sapiens, UniProt P01889, A329T/A93R/C349S/D201E/E100V/E187L/E204Q/E69M/E70A/I90K/K202T/N87E/R155S/R180W/S121R/S35A/S48A/V306I/V36M/Y140S). The test is described as follows: Competitive peptide binding assay, CIR-B4601. Particulars: for IC50: HMy2.CIR-B4601 cells, reference Cy5-[…], class from inhibition at 5 and 15 μM, flow cytometry MFI, read-out: Binding affinity with HLA-B4601; for inhibition at 5 µM: read-out: Inhibition % of Cy5-reference peptide binding, CIR-B4601, 5μM peptide; for inhibition at 15 µM: read-out: Inhibition % of Cy5-reference peptide binding, CIR-B4601, 15μM peptide. Here is the method: as §1

Test [9] concerns the target HLA-B1301 (Homo sapiens, UniProt P01889, A65T/A93T/A95T/D138N/D201E/D98Y/E176V/E204Q/E69M/E70A/G107R/K202T/L105A/L119I/N104T/N87E/Q94N/R106L/R155S/R169L/R180L/S101N/S121R/S35A/S48T/T118I/V127L/V36M/Y140L/Y91S). In words: Competitive peptide binding assay, CIR-B1301. The conditions noted are these: HMy2.CIR-B1301 cells, reference Cy5-[…], class from inhibition at 5 and 15 μM, flow cytometry MFI; read-out: Binding affinity with HLA-B1301. Here is the method: as §1

Test [10] addresses HLA-B5801 (Homo sapiens, UniProt P01889, A329T/C349S/D201E/D98Y/E176V/E187L/E204Q/E69T/G107R/I218V/I90N/K202T/L105A/L119I/N104I/N87E/Q89R/Q94S/R106L/R155S/R180L/R86G/S101N/S121R/S35A/S48A/T118I/V127L/V306I/V36M/Y140S/Y91M). The test is described as follows: Competitive peptide binding assay, CIR-B5801. Particulars: HMy2.CIR-B5801 cells, reference Cy5-[…], class from inhibition at 5 and 15 μM, flow cytometry MFI; read-out: Binding affinity with HLA-B5801. Here is the method: as §1

For test [11], the target named is HLA-B5101 (Homo sapiens, UniProt P01889, A329T/A93T/A95T/C349S/D138N/D201E/D98Y/E187L/E204Q/E69T/G107R/I218V/K202T/L105A/L119W/N104I/Q94N/R106L/R155S/R180L/S101N/S121T/S35A/S48A/V306I/V36M/Y195H/Y91F). In words: Competitive peptide binding assay, CIR-B5101. Particulars: HMy2.CIR-B5101 cells, reference Cy5-[…], class from inhibition at 5 and 15 μM, flow cytometry MFI; read-out: Binding affinity with HLA-B5101. Here is the method:
as §1

Test [12] has as its target HLA-B4801 (Homo sapiens, UniProt P01889, A269T/A93T/A95T/D138N/D98Y/E176V/N87E/Q94N/R180L/T167S/W171L/Y91S). The test is described as follows: Competitive peptide binding assay, CIR-B4801. The conditions noted are these: HMy2.CIR-B4801 cells, reference Cy5-[…], class from inhibition at 5 and 15 μM, flow cytometry MFI; read-out: Binding affinity with HLA-B4801. Here is the method:
as §1

Molecules are shown by their SMILES. Peptide text beside a SMILES is read from it. Where only a bound is given, the exact number is not on record here.

Turning to `CC[C@H](C)[C@H](NC(=O)[C@H](CC(N)=O)NC(=O)[C@H](CCCCN)NC(=O)[C@H](Cc1ccccc1)NC(=O)[C@@H](NC(=O)[C@@H](N)Cc1ccccc1)C(C)C)C(=O)N[C@@H](CC(=O)O)C(=O)NCC(=O)N[C@@H](Cc1ccc(O)cc1)C(=O)O` [Epitope Y172] (H-FVFKNIDGY-OH; N-terminus and C-terminus assumed), the IC50 in test [1] is over 15 µM; in test [2] it was under 5 µM; in test [3], 5 to 15 µM; in test [4], over 15 µM; in [5], over 15 µM; in test [6], over 15 µM. In addition, the IC50 in [7] was 5 to 15 µM; in test [8] it was over 15 µM; in [9] it was over 15 µM; in [10], under 5 µM; in test [11], over 15 µM.
As for `CC[C@H](C)[C@H](NC(=O)[C@H](C)NC(=O)CNC(=O)[C@@H](NC(=O)[C@H](Cc1ccc(O)cc1)NC(=O)[C@@H](NC(=O)[C@@H](N)CC(C)C)[C@@H](C)O)[C@@H](C)O)C(=O)N[C@@H](CCCCN)C(=O)N[C@@H](CC(C)C)C(=O)O` [Epitope Y243] (H-LTYTGAIKL-OH; N-terminus and C-terminus assumed), the IC50 is over 15 µM in [2]; over 15 µM in test [3]; over 15 µM in [7]; under 5 µM in test [8]; over 15 µM in test [9]; over 15 µM in test [12]. In addition, the inhibition at 5 µM in test [8] was 77.3%. Besides, the inhibition at 15 µM in [8] worked out at 94%.
Turning to `CSCC[C@H](NC(=O)[C@H](CCSC)NC(=O)[C@H](CO)NC(=O)[C@H](Cc1ccccc1)NC(=O)[C@H](Cc1c[nH]cn1)NC(=O)[C@H](CCCCN)NC(=O)[C@H](CCCNC(=N)N)NC(=O)[C@H](CC(C)C)NC(=O)[C@@H](N)Cc1ccc(O)cc1)C(=O)O` [Epitope Y28] (H-YLRKHFSMM-OH; N-terminus and C-terminus assumed), the IC50 in test [2] is under 5 µM; in test [3], over 15 µM; in [7] it was 5 to 15 µM; in test [8] it was under 5 µM; in test [9], over 15 µM; in [10], over 15 µM. Also, in [11], the IC50 was over 15 µM. Moreover, in test [8], the inhibition at 5 µM was found to be 85.7%. The inhibition at 15 µM in test [8] was found to be 91.8%.
In the case of `CC(C)C[C@H](N)C(=O)N[C@H](C(=O)N[C@@H](CCCCN)C(=O)N1CCC[C@H]1C(=O)N[C@@H](CO)C(=O)N[C@@H](Cc1ccccc1)C(=O)N[C@@H](Cc1ccc(O)cc1)C(=O)N[C@H](C(=O)N[C@@H](Cc1ccc(O)cc1)C(=O)O)C(C)C)C(C)C` [Epitope Y125] (H-LVKPSFYVY-OH; N-terminus and C-terminus assumed), the IC50 was under 5 µM in [2]; over 15 µM in test [3]; over 15 µM in [5]; 5 to 15 µM in [10]; over 15 µM in [12].
Turning to `CSCC[C@H](NC(=O)[C@H](C)NC(=O)[C@H](CCC(=O)O)NC(=O)[C@H](Cc1ccc(O)cc1)NC(=O)[C@H](Cc1ccccc1)NC(=O)[C@H](CCC(=O)O)NC(=O)[C@@H]1CCCN1C(=O)[C@H](CCC(=O)O)NC(=O)[C@@H](N)Cc1c[nH]c2ccccc12)C(=O)O` [Epitope Y200] (H-WEPEFYEAM-OH; N-terminus and C-terminus assumed), the IC50 in [2], in test [5], in test [7], in [9], in [10] and in test [12] was over 15 µM each time.
For the molecule `CC[C@H](C)[C@H](NC(=O)[C@H](CC(=O)O)NC(=O)[C@H](CCCNC(=N)N)NC(=O)CNC(=O)[C@H](Cc1ccccc1)NC(=O)[C@H](CCC(N)=O)NC(=O)[C@H](CCC(N)=O)NC(=O)[C@H](Cc1ccccc1)NC(=O)[C@@H]1CCCN1C(=O)[C@@H](N)CC(C)C)C(=O)O` [Epitope Y282] (H-LPFQQFGRDI-OH; N-terminus and C-terminus assumed), the IC50 is 5 to 15 µM in test [2], over 15 µM in test [3], over 15 µM in [9] and over 15 µM in test [12].
For `CSCC[C@H](NC(=O)[C@H](CCCCN)NC(=O)CN)C(=O)N[C@@H](CCCCN)C(=O)N[C@@H](CC(=O)O)C(=O)N[C@@H](CC(C)C)C(=O)N[C@@H](CO)C(=O)N1CCC[C@H]1C(=O)N[C@@H](CCCNC(=N)N)C(=O)N[C@@H](Cc1c[nH]c2ccccc12)C(=O)O` [Epitope Y224] (H-GKMKDLSPRW-OH; N-terminus and C-terminus assumed), the IC50 in [2] is over 15 µM; in test [7], over 15 µM; in test [8], over 15 µM; in [9], over 15 µM; in test [12] it was 5 to 15 µM. The inhibition at 5 µM in [8] was 32.3%. In addition, the inhibition at 15 µM in [8] was determined as 52.3%.
On to `CC(C)C[C@H](NC(=O)[C@H](Cc1c[nH]cn1)NC(=O)[C@H](Cc1ccccc1)NC(=O)[C@@H](NC(=O)[C@H](CC(=O)O)NC(=O)[C@H](C)NC(=O)[C@H](Cc1ccc(O)cc1)NC(=O)[C@H](CCC(=O)O)NC(=O)[C@@H](N)CCC(N)=O)C(C)C)C(=O)O` [Epitope Y71] (H-QEYADVFHL-OH; N-terminus and C-terminus assumed), for which the IC50 in [2] was 5 to 15 µM; in [4], 5 to 15 µM; in test [5], over 15 µM; in [7], 5 to 15 µM; in test [10], over 15 µM; in test [11] it was over 15 µM.
